Values of other authors, collected in patent publication US20240384284A1, “FEED CROPS FOR REDUCED METHANOGENESIS IN LIVESTOCK” (Elysia Creative Biology, LLC, priority 2023, published 2024).

System: methanogenesis

BrC(Br)Br [Bromoform]
in vivo methane reduction: up to 98%
